Columns and labels:
[1] = Liquid; for thermal conductivity: 101.33 kPa, Laser flash apparatus; for Critical pressure / Critical temperature: Resistive pulse heating
[2] = molar heat capacity at constant pressure; settings: 101.33 kPa, Liquid, DSC

CCCCCCCC(=O)OCC(COC(=O)CCCCCCC)OC(=O)CCCCCCC [1,2,3-propanetriol trioctanoate]
Settings	molar heat capacity at constant pressure, [2] [J/K/mol]	thermal conductivity, [1] [W/m/K]
315 K	913.3	0.152
320 K	921	0.152
325 K	928.5	0.151
330 K	935.9	0.151
335 K	943.1	0.151
340 K	950.2	0.15
345 K	957.1	0.15
350 K	964	0.15
355 K	970.7	0.149
360 K	977.4	0.149
365 K	984.1	0.148
370 K	990.7	0.148
375 K	997.2	0.147
380 K	1004	0.146
385 K	1010	0.146
390 K	1017	0.145
395 K	1024	0.145
400 K	1030	0.144
405 K	1037	0.144
410 K	1044	0.143
415 K	1051	0.142
420 K	1058	0.142
425 K	1065	0.141

[1]
Settings	Critical pressure [kPa]	Critical temperature [K]
–	830	836

CCCCCCCCCCCCCC(=O)OCC(COC(=O)CCCCCCCCCCCCC)OC(=O)CCCCCCCCCCCCC [1,2,3-propanetriyl tri(tetradecanoate)]
Settings	molar heat capacity at constant pressure, [2] [J/K/mol]	thermal conductivity, [1] [W/m/K]
350 K	1547	0.171
355 K	1557	0.17
360 K	1568	0.17
365 K	1580	0.169
370 K	1592	0.169
375 K	1606	0.168
380 K	1619	0.168
385 K	1632	0.168
390 K	1645	0.167
395 K	1657	0.167
400 K	1668	0.166
405 K	1678	0.165
410 K	1686	0.164

[1]
Settings	Critical pressure [kPa]	Critical temperature [K]
–	610	925

CCCCCCCCCC(=O)OCC(COC(=O)CCCCCCCCC)OC(=O)CCCCCCCCC [1,2,3-propanetriyl tridecanoate]
Settings	molar heat capacity at constant pressure, [2] [J/K/mol]	thermal conductivity, [1] [W/m/K]
320 K	1093	0.153
325 K	1106	0.153
330 K	1117	0.153
335 K	1128	0.153
340 K	1139	0.153
345 K	1148	0.153
350 K	1157	0.152
355 K	1166	0.152
360 K	1174	0.151
365 K	1182	0.15
370 K	1189	0.15
375 K	1196	0.15
380 K	1203	0.149
385 K	1209	0.148
390 K	1216	0.147
395 K	1222	0.147
400 K	1228	0.146
405 K	1235	0.145
410 K	1241	0.144
415 K	1248	0.143

[1]
Settings	Critical pressure [kPa]	Critical temperature [K]
–	750	864

CCCCCCCCCCCC(=O)OCC(COC(=O)CCCCCCCCCCC)OC(=O)CCCCCCCCCCC [1,2,3-propanetriyl tridodecanoate]
Settings	molar heat capacity at constant pressure, [2] [J/K/mol]	thermal conductivity, [1] [W/m/K]
330 K	1316	0.164
335 K	1323	0.163
340 K	1331	0.162
345 K	1340	0.161
350 K	1350	0.161
355 K	1361	0.16
360 K	1372	0.16
365 K	1384	0.159
370 K	1396	0.159
375 K	1407	0.158
380 K	1418	0.158
385 K	1428	0.157
390 K	1438	0.156
395 K	1446	0.155
400 K	1453	0.154
405 K	1458	0.153
410 K	1461	0.151

[1]
Settings	Critical pressure [kPa]	Critical temperature [K]
–	650	899

Reference: the NIST ThermoML archive (doi:10.1016/j.jct.2017.07.006)
